Test results published in patent US8822690B2, “High transmissional yellow dye for LCD and synthetic method thereof” (LG Display Co., Ltd., priority 2012, dated 2014).
Read-outs that look alike come from different tables or passages of the source.

Assays:
Assay type in all cases: physicochemical
[1] = qualitative solubility assessment of the synthesized quinophthalone series dye; conditions: organic solvent or mixture
From the text: In below Table 1, there were qualitative solubility assessment results of the synthesized quinophthalone series dye. […] This means that new design to improve solubility is successful. It was shown that QP3 improving intermolecular steric hindrance by bulk-sized alkyl residue and QP4 increasing affinity to the process solvent, PGMEA, by introducing carboxylate functional group increased its solubility successfully than QP1.

[2] = UV-vis absorption spectroscopic analysis of dye; conditions: slope of absorption reduction just prior to 500 nm, absorption after 500 nm
From the text: As QP3 and QP4 increased the molar extinction coefficient further in addition to somewhat bathochromic-shift of λmax, they show very strong and sharp absorption peaks prior to 500 nm. This is very ideal absorption peak for being used as a yellow compensation dye to correct the major green dye.

[3] = thermal resistance by Thermo Gravimetric Analyzer (TGA); conditions: high temperature zone over 300° C.
Description: Through Thermo Gravimetric Analyzer (TGA), Thermogravimetric Analyzer 2050 (TA instruments), thermal resistance of the synthesized dye was measured (FIG. 3). For the thermal resistance test, change of mass reduction rate (w %) was measured by passing through isothermal section at 220° C. for 30 min, raising the temperature to 30° C.˜400° C. in 10° C./min. In order to apply it as a dye material for LCD color filter, the mass reduction in isothermal zone must be less than 5%. […] In case of QP3 and QP4, it was analyzed that functional groups introduced to improve the solubility gave somewhat reciprocal effects to the thermal resistance of dye. […] It seems that the weight loss is caused by effects of solvents or impurities rather than thermal resistance of dye itself.

[4] = solubility to PGMEA in primary color filter application property assessment; conditions: for 1% solubility of dye to PGMEA: 1% in PGMEA
[5] = spectroscopic change by temperature and number of PB (Δ Eab)
Description: Color simulation was performed according to the condition described in FIG. 15.

[6] = process solvent PGMEA, read-out: solubility in PGMEA
[7] = solvent CH2Cl2, read-out: solubility in CH2Cl2
[8] = 180° C., first value of PB sequence
[9] = 180° C., second value of PB sequence
[10] = 180° C., third value of PB sequence
[11] = 200° C., first value of PB sequence
[12] = 200° C., second value of PB sequence
[13] = 200° C., third value of PB sequence
[14] = 230° C., first value of PB sequence
[15] = 230° C., second value of PB sequence
[16] = 230° C., third value of PB sequence

Row | SMILES | solubility [1, 6] [mg/mL] | solubility [1, 7] [mg/mL] | color property (UV-vis absorption peak) [2] | thermal resistance in high temperature zone [3] | 1% solubility of dye to PGMEA [4] | solubility to PGMEA [4] | spectroscopic change by # of PB (Δ Eab) [5, 8] | spectroscopic change by # of PB (Δ Eab) [5, 9] | spectroscopic change by # of PB (Δ Eab) [5, 10] | spectroscopic change by # of PB (Δ Eab) [5, 11] | spectroscopic change by # of PB (Δ Eab) [5, 12] | spectroscopic change by # of PB (Δ Eab) [5, 13] | spectroscopic change by # of PB (Δ Eab) [5, 14] | spectroscopic change by # of PB (Δ Eab) [5, 15] | spectroscopic change by # of PB (Δ Eab) [5, 16]
1 | CC(C)(C)c1ccc2c(c1)C(=O)/C(=C1\C=Cc3cccc(N4C(=O)c5ccc(C(C)(C)C)cc5C4=O)c3N1)C2=O [QP3] | > 50 | > 50 | the most excellent color property | the best thermal resistance property | satisfactory level | 5-10% | 0.36 | 1.84 | 1.98 | 0.56 | 2.74 | 2.77 | 2.94 | 9.3 | 13.4
2 | O=C1c2ccccc2C(=O)C1c1ccc2cccc(N3C(=O)c4ccccc4C3=O)c2n1 [QP1] | > 5 | > 5 |  |  |  |  |  |  |  |  |  |  |  |  | 
3 | O=C1c2cccc3cccc(c23)C(=O)N1c1cccc2c1NC(=c1c(=O)c3cccc4cccc(c1=O)c43)C=C2 [QP2] | > 0.5 | > 0.5 |  |  |  |  |  |  |  |  |  |  |  |  | 
4 | CCOC(=O)c1ccc2c(c1)C(=O)/C(=C1\C=Cc3cccc(N4C(=O)c5ccc(C(=O)OCC)cc5C4=O)c3N1)C2=O [QP4] | > 50 | > 50 |  |  | satisfactory level | 5-7% | 1.11 | 1.42 | 1.59 | 1.62 | 2.04 | 2.37 | 3.51 | 6.3 | 9.36
